Test [1] deals with T1, IRAK4 (Homo sapiens (Human), UniProt Q9NWZ3). As to the kind of experiment: IRAK4 Biochemical HTRF Kinase Assay. The conditions noted are these: read-out: IRAK4 HTRF biochemical: IC50. In a few lines:
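IC50 values derive from non-linear regression of sixteen concentrations in duplicate. Kinase reaction ran 90 min at ambient temperature after adding 5 μM STK-S1 substrate, 10 mM ATP and 10 mM MgCl2 (reaction-solution levels, pre-dilution to 10 μl); phospho-peptide detected by HTRF after 60 min.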
Target sequence in this assay (Q9NWZ3 whole entry, species assumed): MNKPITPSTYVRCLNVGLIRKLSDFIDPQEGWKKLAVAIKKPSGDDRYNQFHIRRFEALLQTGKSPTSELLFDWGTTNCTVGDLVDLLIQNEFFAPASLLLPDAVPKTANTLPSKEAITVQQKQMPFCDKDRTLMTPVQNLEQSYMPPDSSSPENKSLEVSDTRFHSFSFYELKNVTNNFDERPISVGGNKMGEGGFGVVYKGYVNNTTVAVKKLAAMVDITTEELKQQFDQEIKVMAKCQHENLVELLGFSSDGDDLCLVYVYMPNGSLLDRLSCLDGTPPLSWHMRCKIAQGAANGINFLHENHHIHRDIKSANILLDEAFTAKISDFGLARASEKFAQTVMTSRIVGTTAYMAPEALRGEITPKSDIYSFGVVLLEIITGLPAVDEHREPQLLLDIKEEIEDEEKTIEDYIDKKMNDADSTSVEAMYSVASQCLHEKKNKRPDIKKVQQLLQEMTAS

In test [2] the target is T1, IRAK4. As to the kind of experiment: IRAK4 Degradation HiBiT Assay. Conditions: HiBiT-tagged Jurkat cells, 4 hrs; for Dmax: Jurkat; for DC50: read-out: Cellular IRAK4 HiBiT: DC50. On the technique in general: HiBiT is a short tag that completes a luciferase, so light tracks the accessible tagged protein.
Target sequence in this assay (Q9NWZ3 whole entry): as the sequence (Q9NWZ3 whole entry, species assumed) above
Setting [3] is: read-out: Cellular IRAK4 HiBiT: Dmax, Table 5, multiple runs.
Where [4] appears, read: read-out: Cellular IRAK4 HiBiT: Dmax, Table 4.

Where two headings read alike, the source gives them in different places. Where only a bound is given, the exact number is not on record here.

Turning to `CNc1cc(-c2ccc3cc(C#N)cnn23)ncc1-c1nnc([C@H]2CC[C@H](NC(=O)[C@H]3CC[C@H]3C(=O)N[C@H](C(=O)N3C[C@H](O)C[C@H]3C(=O)N[C@@H](C)c3ccc(-c4scnc4C)cc3)C(C)(C)C)CC2)s1` (racemic) [Example 143, (1RS,2SR)—N1-((1r,4R)-4-(5-(6-(3-cyanopyrrolo[1,2-b]pyridazin-7-yl)-4-(methylamino)pyridin-3-yl)-1,3,4-thiadiazol-2-yl)cyclohexyl)-N2—((S)-1-((2S,4R)-4-hydroxy-2-(((S)-1-(4-(4-methylthiazol-5-yl)phenyl)ethyl)carbamoyl)pyrrolidin-1-yl)-3,3-dimethyl-1-oxobutan-2-yl)cyclobutane-1,2-dicarboxamide], on IRAK4 [1] (Table 5, multiple runs), the IC50 (as a rule, the point on the concentration scale where inhibition reaches its midpoint) was 1.6 nM. The Dmax (in general, the greatest extent of degradation seen) on IRAK4 [2] (setting [3]) was 37%. In addition, on IRAK4 [2] (Table 5, multiple runs), the DC50 (as a rule, the midpoint of the concentration-degradation curve) turned out to be 870 nM.
Regarding `CN[C@@H](C)C(=O)N[C@H](C(=O)N1CCC[C@H]1c1nc(C(=O)c2cccc(OCCOCCC(=O)N3CCN(c4nnc(-c5cnc(-c6ccc7cc(C#N)cnn67)cc5NC(C)C)s4)CC3)c2)cs1)C1CCCCC1` [Example 50, (S)—N—((S)-2-((S)-2-(4-(3-(2-(3-(4-(5-(6-(3-cyanopyrrolo[1,2-b]pyridazin-7-yl)-4-(isopropylamino)pyridin-3-yl)-1,3,4-thiadiazol-2-yl)piperazin-1-yl)-3-oxopropoxy)ethoxy)benzoyl)thiazol-2-yl)pyrrolidin-1-yl)-1-cyclohexyl-2-oxoethyl)-2-(methylamino)propanamide], the IC50 on IRAK4 [1] (Table 4) amounted to 3.1 nM; at IRAK4 [1] (Table 5, multiple runs) it was 3.2 nM. Moreover, the Dmax on IRAK4 [2] (setting [4]) and on IRAK4 [2] (setting [3]) was 67% throughout. The DC50 was found to be 197 nM on IRAK4 [2] (Table 4) and 197 nM at IRAK4 [2] (Table 5, multiple runs).
For the compound `CNc1cc(-c2ccc3cc(C#N)cnn23)ncc1-c1nnc([C@H]2CC[C@H](NC(=O)CN3CCN(c4ccc5c(c4)C(=O)N(C4CCC(=O)N(C)C4=O)C5=O)CC3)CC2)s1` (stereo partly drawn) [Example 148, N-((1r,4r)-4-(5-(6-(3-cyanopyrrolo[1,2-b]pyridazin-7-yl)-4-(methylamino)pyridin-3-yl)-1,3,4-thiadiazol-2-yl)cyclohexyl)-2-(4-(2-(1-methyl-2,6-dioxopiperidin-3-yl)-1,3-dioxoisoindolin-5-yl)piperazin-1-yl)acetamide], the IC50 on IRAK4 [1] (Table 5, multiple runs) was 1.4 nM. In addition, the DC50 on IRAK4 [2] (Table 5, multiple runs) is > 9980 nM.
In the case of `CNc1cc(-c2ccc3cc(C#N)cnn23)ncc1-c1nnc(C2CCC(NC(=O)C[C@H](NC(=O)[C@@H]3C[C@@H](O)CN3C(=O)[C@@H](NC(=O)C3(F)CC3)C(C)(C)C)c3ccccc3)CC2)s1` (stereo partly drawn) [Example 149, (2S,4R)—N—((S)-3-(((1r,4S)-4-(5-(6-(3-cyanopyrrolo[1,2-b]pyridazin-7-yl)-4-(methylamino)pyridin-3-yl)-1,3,4-thiadiazol-2-yl)cyclohexyl)amino)-3-oxo-1-phenylpropyl)-1-((S)-2-(1-fluorocyclopropane-1-carboxamido)-3,3-dimethylbutanoyl)-4-hydroxypyrrolidine-2-carboxamide], the IC50 at IRAK4 [1] (Table 5, multiple runs) worked out at 0.8 nM. The DC50 on IRAK4 [2] (Table 5, multiple runs) was > 9980 nM.
Consider `CNc1cc(-c2ccc3cc(C#N)cnn23)ncc1-c1nnc(N2CCN(C[C@H]3CCN(c4ccc5c(c4)n(C)c(=O)n5C4CCC(=O)NC4=O)C3)CC2)s1` (stereo partly drawn) [Example 91, 7-(5-(5-(4-(((3R)-1-(1-(2,6-dioxopiperidin-3-yl)-3-methyl-2-oxo-2,3-dihydro-1H-benzo[d]imidazol-5-yl)pyrrolidin-3-yl)methyl)piperazin-1-yl)-1,3,4-thiadiazol-2-yl)-4-(methylamino)pyridin-2-yl)pyrrolo[1,2-b]pyridazine-3-carbonitrile], for which the half-maximal inhibitory concentration (IC50) at IRAK4 [1] (Table 5, multiple runs) is 1.6 nM. Moreover, the DC50 at IRAK4 [2] (Table 5, multiple runs) is > 970 nM.
On to `CNc1cc(-c2ccc3cc(C#N)cnn23)ncc1-c1nnc(N2CCN(C(=O)CN3CCN(c4ccc5c(c4)C(=O)N(C4CCC(=O)NC4=O)C5=O)CC3)CC2)s1` (stereo not drawn) [Example 94, 7-(5-(5-(4-(2-(4-(2-(2,6-dioxopiperidin-3-yl)-1,3-dioxoisoindolin-5-yl)piperazin-1-yl)acetyl)piperazin-1-yl)-1,3,4-thiadiazol-2-yl)-4-(methylamino)pyridin-2-yl)pyrrolo[1,2-b]pyridazine-3-carbonitrile], for which the IC50 on IRAK4 [1] (Table 5, multiple runs) came out at 0.6 nM. The Dmax at IRAK4 [2] (setting [3]) amounted to 113%. Moreover, on IRAK4 [2] (Table 5, multiple runs), the DC50 is 321 nM.
The corresponding values for `CNc1cc(-c2ccc3cc(C#N)cnn23)ncc1-c1nnc([C@H]2CC[C@@H](NC(=O)C3CCN(c4ccc5c(c4)C(=O)N(C4CCC(=O)NC4=O)C5=O)CC3)CC2)s1` (stereo partly drawn) [Example 133, N-((1s,4s)-4-(5-(6-(3-cyanopyrrolo[1,2-b]pyridazin-7-yl)-4-(methylamino)pyridin-3-yl)-1,3,4-thiadiazol-2-yl)cyclohexyl)-1-(2-(2,6-dioxopiperidin-3-yl)-1,3-dioxoisoindolin-5-yl)piperidine-4-carboxamide] are 0.9 nM, 111% and 51.4 nM.
In the case of `CNc1cc(-c2ccc3cc(C#N)cnn23)ncc1-c1nnc([C@H]2CC[C@@H](NC(=O)CN3CCN(c4ccc5c(c4)C(=O)N(C4CCC(=O)NC4=O)C5=O)CC3)CC2)s1` (stereo partly drawn) [Example 126, N-((1s,4s)-4-(5-(6-(3-cyanopyrrolo[1,2-b]pyridazin-7-yl)-4-(methylamino)pyridin-3-yl)-1,3,4-thiadiazol-2-yl)cyclohexyl)-2-(4-(2-(2,6-dioxopiperidin-3-yl)-1,3-dioxoisoindolin-5-yl)piperazin-1-yl)acetamide], the IC50 at IRAK4 [1] (Table 5, multiple runs) was determined as 0.9 nM. The Dmax at IRAK4 [2] (setting [3]) came to 111%. Besides, the DC50 on IRAK4 [2] (Table 5, multiple runs) was 63.1 nM.
As for `CNc1cc(-c2ccc3cc(C#N)cnn23)ncc1-c1nnc(N2CC3(CCN(C(=O)COc4cc(-c5scnc5C)ccc4CNC(=O)[C@@H]4C[C@@H](O)CN4C(=O)[C@@H](NC(=O)C4(F)CC4)C(C)(C)C)CC3)C2)s1` [Example 179, (2S,4R)—N-(2-(2-(2-(5-(6-(3-cyanopyrrolo[1,2-b]pyridazin-7-yl)-4-(methylamino)pyridin-3-yl)-1,3,4-thiadiazol-2-yl)-2,7-diazaspiro[3.5]nonan-7-yl)-2-oxoethoxy)-4-(4-methylthiazol-5-yl)benzyl)-1-((S)-2-(1-fluorocyclopropane-1-carboxamido)-3,3-dimethylbutanoyl)-4-hydroxypyrrolidine-2-carboxamide], the IC50 on IRAK4 [1] (Table 5, multiple runs) is 0.7 nM. Moreover, the Dmax at IRAK4 [2] (setting [3]) amounted to 85%. For the same compound, the DC50 on IRAK4 [2] (Table 5, multiple runs) is 57 nM.
On to `CC(C)Nc1cc(-c2ccc3cc(C#N)cnn23)ncc1-c1nnc([C@H]2CC[C@H](NC(=O)CCOCCOCCOCCNc3cccc4c3C(=O)N(C3CCC(=O)NC3=O)C4=O)CC2)s1` (stereo partly drawn) [Example 4, N-((1r,4r)-4-(5-(6-(3-cyanopyrrolo[1,2-b]pyridazin-7-yl)-4-(isopropylamino)pyridin-3-yl)-1,3,4-thiadiazol-2-yl)cyclohexyl)-3-(2-(2-(2-((2-(2,6-dioxopiperidin-3-yl)-1,3-dioxoisoindolin-4-yl)amino)ethoxy)ethoxy)ethoxy)propanamide], for which the IC50 is 1.8 nM at IRAK4 [1] (Table 4) and 1.7 nM at IRAK4 [1] (Table 5, multiple runs). The Dmax at IRAK4 [2] (setting [4]) was 97%; at IRAK4 [2] (setting [3]), 98%. For the same compound, the DC50 at IRAK4 [2] (Table 4) came to 51.8 nM; on IRAK4 [2] (Table 5, multiple runs) it was 52.5 nM.
In the case of `CNc1cc(-c2ccc3cc(C#N)cnn23)ncc1-c1nnc(N2CCN(C(=O)C[C@H](NC(=O)[C@@H]3C[C@@H](O)CN3C(=O)[C@@H](NC(=O)C3(F)CC3)C(C)(C)C)c3ccc(-c4scnc4C)cc3)CC2)s1` [Example 160, (2S,4R)—N—((S)-3-(4-(5-(6-(3-cyanopyrrolo[1,2-b]pyridazin-7-yl)-4-(methylamino)pyridin-3-yl)-1,3,4-thiadiazol-2-yl)piperazin-1-yl)-1-(4-(4-methylthiazol-5-yl)phenyl)-3-oxopropyl)-1-((S)-2-(1-fluorocyclopropane-1-carboxamido)-3,3-dimethylbutanoyl)-4-hydroxypyrrolidine-2-carboxamide], on IRAK4 [1] (Table 5, multiple runs), the IC50 turned out to be 1.1 nM. Further, at IRAK4 [2] (setting [3]), the Dmax came out at 97%. For the same compound, the DC50 on IRAK4 [2] (Table 5, multiple runs) was 85.8 nM.
Take `CN[C@@H](C)C(=O)N[C@H](C(=O)N1C[C@@H](NC(=O)CCCCC(=O)N2CCN(c3nnc(-c4cnc(-c5ccc6cc(C#N)cnn56)cc4NC(C)C)s3)CC2)C[C@H]1C(=O)N[C@@H]1CCCc2ccccc21)C1CCCCC1` [Example 51, (2S,4S)-4-(6-(4-(5-(6-(3-cyanopyrrolo[1,2-b]pyridazin-7-yl)-4-(isopropylamino)pyridin-3-yl)-1,3,4-thiadiazol-2-yl)piperazin-1-yl)-6-oxohexanamido)-1-((S)-2-cyclohexyl-2-((S)-2-(methylamino)propanamido)acetyl)-N—((R)-1,2,3,4-tetrahydronaphthalen-1-yl)pyrrolidine-2-carboxamide]: the IC50 is 2 nM at IRAK4 [1] (Table 4) and 2 nM at IRAK4 [1] (Table 5, multiple runs). For the same compound, the Dmax at IRAK4 [2] (setting [4]) turned out to be 48%; on IRAK4 [2] (setting [3]), 47%. In addition, the DC50 is 638 nM on IRAK4 [2] (Table 4) and 502 nM at IRAK4 [2] (Table 5, multiple runs).
Consider `CC(C)Nc1cc(-c2ccc3cc(C#N)cnn23)ncc1-c1nnc(N2CCN(CCCc3cccc4c3CN(C3CCC(=O)NC3=O)C4=O)CC2)s1` (stereo not drawn) [Example 29, 7-(5-(5-(4-(3-(2-(2,6-dioxopiperidin-3-yl)-1-oxoisoindolin-4-yl)propyl)piperazin-1-yl)-1,3,4-thiadiazol-2-yl)-4-(isopropylamino)pyridin-2-yl)pyrrolo[1,2-b]pyridazine-3-carbonitrile], for which the IC50 is 0.8 nM on IRAK4 [1] (Table 4) and 1.1 nM on IRAK4 [1] (Table 5, multiple runs). Besides, the Dmax at IRAK4 [2] (setting [4]) and at IRAK4 [2] (setting [3]) was 90% throughout. Besides, the DC50 on IRAK4 [2] (Table 4) is 135 nM; at IRAK4 [2] (Table 5, multiple runs), 136 nM.

The values above are taken from patent publication US12528814B2, “Bifunctional degraders of interleukin-1 receptor-associated kinases and therapeutic use thereof” (NURIX THERAPEUTICS, INC., priority 2020, dated 2026).
